The record followed here is US7772241B2, “Variolin derivatives and their use as antitumor agents” (Pharma Mar S.A., priority 2001, dated 2010).

SMILES strings stand for the structures. Read-outs that look alike come from different tables or passages of the source. Some results are limits rather than exact numbers.

The test system of one data set is A-549. The experiment in a line: Inhibition of cells growth by colorimetric (SRB) assay, A-549. In outline:
(§1)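 Human tumour cells seeded at 5×10^3/well in RPMI 1640 10% FBS, attached 18 h, then exposed 48 h to samples at 10 to 10^−8 μg/ml in DMSO/EtOH/PBS (0.5:0.5:99). Growth read by SRB staining after TCA fixation, OD 490 nm, triplicate wells; GI, TGI and LC derived.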

The subject of the next data set is HT-29. The experiment in a line: Inhibition of cells growth by colorimetric (SRB) assay, HT-29. In outline: as §1
The subject of a further data set is HMEC1. The experiment in a line: Inhibition of cells growth by colorimetric (SRB) assay, HMEC1. The following applies: for TGI H-MEC-1 / H-MEC-1 TGI: in M (unit assumed).
Assay in data set [1]: as above
To be noted: human, HMEC1 cells, 48 hours exposure.

The test system of a further data set is LoVo. In words: Inhibition of cells growth by colorimetric (SRB) assay, LoVo. The following applies: SRB assay, 48 hours exposure. In outline: as §1
For the next data set, the system named is K-562. The experiment in a line: Inhibition of cells growth by colorimetric (SRB) assay, K-562. To be noted: SRB assay, 48 hours exposure. The method in brief:
as §1
In general terms: Sulforhodamine B stains cellular protein and so reports cell mass.

The test system of the next data set is DU-145. In words: Inhibition of cells growth by colorimetric (SRB) assay, DU-145. To be noted: SRB assay, 48 hours exposure. The method in brief:
as §1

Another data set deals with SK-BR-3. The experiment in a line: Inhibition of cells growth by colorimetric (SRB) assay, SK-BR-3. To be noted: SRB assay, 48 hours exposure. In outline: as §1
A further data set has as its system PANC-1. In words: Inhibition of cells growth by colorimetric (SRB) assay, PANC-1. The following applies: SRB assay, 48 hours exposure. The method in brief: as §1
The next data set has as its system LNCaP. In words: Inhibition of cells growth by colorimetric (SRB) assay, LNCaP. In outline:
as §1

In another data set the test system is SK-MEL-28. In words: Inhibition of cells growth by colorimetric (SRB) assay, SK-MEL-28. To be noted: SRB assay, 48 hours exposure. The method in brief:
as §1

A further data set relates to IGROV-1. In words: Inhibition of cells growth by colorimetric (SRB) assay, IGROV-1. To be noted: SRB assay, 48 hours exposure. In outline:
as §1

A further data set relates to SK-OV-3. In words: Inhibition of cells growth by colorimetric (SRB) assay, SK-OV-3. In outline:
as §1

Another data set has as its system IGROV-ET. The experiment in a line: Inhibition of cells growth by colorimetric (SRB) assay, IGROV-ET. The following applies: SRB assay, 48 hours exposure. In outline:
as §1

In another data set the test system is LoVo-Dox. The experiment in a line: Inhibition of cells growth by colorimetric (SRB) assay, LoVo-Dox. To be noted: SRB assay, 48 hours exposure. The method in brief:
as §1

Where [2] appears, read: Homo sapiens, A549, 48 h, read-out: A-549 LC50, SRB assay, 48 hours exposure.
[3] abbreviates: Homo sapiens, A549, 48 h, read-out: GI50 A-549, SRB assay, 48 hours exposure.
[4] abbreviates: Homo sapiens, HT-29, 48 h, read-out: HT-29 GI50, SRB assay, 48 hours exposure.
Where [5] appears, read: Homo sapiens, HT-29, 48 h, read-out: HT-29 LC50, SRB assay, 48 hours exposure.
The mark [6] stands for this setting: Homo sapiens, HMEC-1, 48 h, read-out: GI50 H-MEC-1, SRB assay, 48 hours exposure.
Setting [7] is: Homo sapiens, A549, 48 h, read-out: A-549 GI50, SRB assay, 48 hours exposure.
The mark [8] stands for this setting: Homo sapiens, HMEC-1, 48 h, read-out: H-MEC-1 GI50, SRB assay, 48 hours exposure.
Where [9] appears, read: Homo sapiens, A549, 48 h, read-out: LC50 A-549, SRB assay, 48 hours exposure.
[10] abbreviates: Homo sapiens, HT-29, 48 h, read-out: GI50 HT-29, SRB assay, 48 hours exposure.
The mark [11] stands for this setting: Homo sapiens, HT-29, 48 h, read-out: LC50 HT-29, SRB assay, 48 hours exposure.

Regarding `COc1cccc(-c2c3cccnc3n3c(N)nccc23)c1.Cl` [Compound 67], the CC50 in the data set with A-549 (setting [2]) and with HT-29 (setting [5]) was 30.6 µM throughout. The GI50 in the data set with A-549 (setting [3]), in the data set on HT-29 (setting [4]) and with HMEC1 (setting [6]) was 30.6 µM in each case. In addition, the “A-549 TGI” value in the data set on A-549 (SRB assay, 48 hours exposure) was 3.06E−05. For the same compound, in the data set on HT-29 (SRB assay, 48 hours exposure), the “HT-29 TGI” value amounted to 3.06E−05. Also, in the data set on HMEC1 (SRB assay, 48 hours exposure), the “TGI H-MEC-1” value came out at 3.06E−05. For the same compound, the CC50 at 48 h in data set [1] (LC50 H-MEC-1, SRB assay) is 30.6 µM.
On to `Nc1nccc2c(-c3ccncn3)c3cccnc3n12` [Compound 70], for which the GI50 is 0.182 µM with A-549 (setting [7]), 0.0381 µM with HT-29 (setting [4]) and 0.119 µM in the data set on HMEC1 (setting [8]). In addition, the values for the CC50 with A-549 (setting [2]) and in the data set with HT-29 (setting [5]) were 3.35 µM and 38.1 µM, respectively. Moreover, in the data set with A-549 (SRB assay, 48 hours exposure), the “A-549 TGI” value came out at 5.60E−07. Besides, the “HT-29 TGI” value in the data set with HT-29 (SRB assay, 48 hours exposure) is reported as 3.81E−06. For the same compound, in the data set on HMEC1 (SRB assay, 48 hours exposure), the “H-MEC-1 TGI” value is 3.93E−07. The compound further gave a CC50 at 48 h in data set [1] (H-MEC-1 LC50, SRB assay) of 4 µM.
As for `Cc1nccc(-c2c3cccnc3n3c(N)nccc23)n1` [Compound 75], the GI50 in the data set with A-549 (setting [7]) is 4.2 µM; in the data set on HT-29 (setting [4]), 5.79 µM; with HMEC1 (setting [8]), 1.43 µM. The CC50 in the data set on A-549 (setting [2]) came to 21.3 µM; in the data set with HT-29 (setting [5]), 36.2 µM. Also, the “A-549 TGI” value with A-549 (SRB assay, 48 hours exposure) stood at 9.45E−06. In the data set on HT-29 (SRB assay, 48 hours exposure), the “HT-29 TGI” value was 3.62E−05. Besides, the “H-MEC-1 TGI” value in the data set with HMEC1 (SRB assay, 48 hours exposure) came out at 8.00E−06. The compound also returned a CC50 at 48 h in data set [1] (H-MEC-1 LC50, SRB assay) of 36.2 µM.
On to `CCOc1nccc(-c2c3cccnc3n3c(N)nccc23)n1` [Compound 77], for which the “TGI LOVO” value in the data set on LoVo is given as 2.02E−06. The GI50 in the data set with LoVo (read-out: GI50 LOVO) is 0.629 µM; with K-562 (read-out: GI50 K-562) it was 1.21 µM; with A-549 (read-out: GI50 A-549, SRB assay, 48 hours exposure) it was at least 32.6 µM; with DU-145 (read-out: GI50 DU-145) it was 0.63 µM; in the data set on SK-BR-3 (read-out: GI50 SK-BR-3) it was 0.643 µM; with PANC-1 (read-out: GI50 PANC-1), 1.16 µM. In addition, the GI50 amounted to 0.829 µM in the data set with HT-29 (read-out: GI50 HT-29, SRB assay, 48 hours exposure); 0.206 µM in the data set on HMEC1 (read-out: GI50 H-MEC-1, SRB assay, 48 hours exposure); 0.617 µM with LNCaP (Homo sapiens, LNCaP, 48 h, read-out: GI50 LN-caP, SRB assay, 48 hours exposure); 0.398 µM in the data set on SK-MEL-28 (read-out: GI50 MEL-28); 1.3 µM with IGROV-1 (read-out: GI50 IGROV); 1.3 µM with SK-OV-3 (Homo sapiens, SK-OV-3, 48 h, read-out: GI50 SKOV-3, SRB assay, 48 hours exposure). In addition, the GI50 amounted to 0.555 µM in the data set with IGROV-ET (read-out: GI50 IGROV-ET) and 0.702 µM in the data set on LoVo-Dox (read-out: GI50 LOVO-DOX). Besides, the CC50 is at least 32.6 µM in the data set on LoVo (read-out: LC50 LOVO); at least 32.6 µM with K-562 (read-out: LC50 K-562); over 32.6 µM in the data set on A-549 (read-out: LC50 A-549, SRB assay, 48 hours exposure); 27.8 µM in the data set with DU-145 (read-out: LC50 DU-145); 2.79 µM with SK-BR-3 (read-out: LC50 SK-BR-3); at least 32.6 µM with PANC-1 (read-out: LC50 PANC-1). Moreover, the CC50 in the data set with HT-29 (read-out: LC50 HT-29, SRB assay, 48 hours exposure) was 3.26 µM; in the data set with HMEC1 (read-out: LC50 H-MEC-1, SRB assay, 48 hours exposure) it was 1.26 µM; with LNCaP (Homo sapiens, LNCaP, 48 h, read-out: LC50 LN-caP, SRB assay, 48 hours exposure) it was 2.96 µM; in the data set on SK-MEL-28 (read-out: LC50 MEL-28), 2.16 µM; in the data set on IGROV-1 (read-out: LC50 IGROV) it was at least 32.6 µM; in the data set on SK-OV-3 (read-out: LC50 SKOV-3, SRB assay, 48 hours exposure), 3.26 µM. Moreover, the CC50 with IGROV-ET (read-out: LC50 IGROV-ET) was at least 32.6 µM; with LoVo-Dox (read-out: LC50 LOVO-DOX), 15.1 µM. In addition, the “TGI K-562” value in the data set with K-562 stood at 3.26E−05. Further, the “TGI A-549” value with A-549 (SRB assay, 48 hours exposure) is reported as 3.26E−05. Further, the “TGI DU-145” value in the data set on DU-145 was 1.68E−06. Also, in the data set with SK-BR-3, the “TGI SK-BR-3” value came to 1.34E−06. Moreover, the “TGI PANC-1” value in the data set on PANC-1 is 7.80E−06. Besides, the “TGI HT-29” value in the data set with HT-29 (SRB assay, 48 hours exposure) was found to be 3.26E−06. For the same compound, in the data set with HMEC1 (SRB assay, 48 hours exposure), the “TGI H-MEC-1” value came to 3.21E−07. The “TGI LN-caP” value in the data set on LNCaP (SRB assay, 48 hours exposure) was found to be 1.35E−06. In the data set with SK-MEL-28, the “TGI MEL-28” value was found to be 9.24E−07. In addition, the “TGI IGROV” value with IGROV-1 amounted to 2.74E−06. The “TGI SKOV-3” value in the data set on SK-OV-3 (SRB assay, 48 hours exposure) is listed as 3.26E−06. The “TGI IGROV-ET” value in the data set with IGROV-ET was determined as 1.61E−06. For the same compound, the “TGI LOVO-DOX” value in the data set on LoVo-Dox amounted to 2.79E−06.
With `CSc1nccc(-c2c3c(Cl)ccnc3n3c(SC)nccc23)n1` [Compound 84], the GI50 in the data set with A-549 (setting [3]), with HT-29 (setting [10]) and in the data set with HMEC1 (setting [6]) was 26.7 µM throughout. For the same compound, the CC50 in the data set with A-549 (setting [9]) and in the data set with HT-29 (setting [11]) was 26.7 µM in each case. The “TGI A-549” value in the data set with A-549 (SRB assay, 48 hours exposure) was determined as 2.67E−05. Besides, the “TGI HT-29” value in the data set with HT-29 (SRB assay, 48 hours exposure) amounted to 2.67E−05. Further, in the data set with HMEC1 (SRB assay, 48 hours exposure), the “TGI H-MEC-1” value is 2.67E−05. The compound also returned a CC50 at 48 h in data set [1] (LC50 H-MEC-1, SRB assay) of 26.7 µM.
For the compound `COc1ccc(CNc2ccnc3c2c(-c2ccnc(SC)n2)c2ccnc(NCc4ccc(OC)cc4)n23)cc1` [Compound 85], the results for the GI50 in the data set on A-549 (setting [3]), in the data set on HT-29 (setting [10]) and with HMEC1 (setting [6]) were 6.58 µM, 12.2 µM and 6.19 µM, respectively. Also, the CC50 in the data set on A-549 (setting [9]) and in the data set with HT-29 (setting [11]) was 17.7 µM each time. Also, the “TGI A-549” value in the data set on A-549 (SRB assay, 48 hours exposure) was 1.77E−05. Besides, the “TGI HT-29” value in the data set with HT-29 (SRB assay, 48 hours exposure) was determined as 1.77E−05. Further, the “TGI H-MEC-1” value with HMEC1 (SRB assay, 48 hours exposure) is reported as 1.77E−05. In addition, the CC50 at 48 h in data set [1] (LC50 H-MEC-1, SRB assay) is 17.7 µM.

In general, GI50 refers to the concentration giving 50% growth inhibition.
